Data as given in PMC12799362, “The effect of dimeric bisbenzimidazoles on the activity of DNA repair enzymes TDP1, TDP2, PARP1 and PARP2” (Vavilov Journal of Genetics and Breeding, 2025).

What was measured:
[1] = molecular target: T1, tyrosyl-DNA phosphodiesterase 1 (TDP1) (Homo sapiens, UniProt Q9NUW8); experiment: Real-time fluorescent detection of TDP1 activity (BHQ1 cleavage from 3′-end of single-stranded FAM oligonucleotide); assay type: biochemical; conditions: recombinant TDP1 1.5 nM, 50 nM single-stranded oligonucleotide, 26 °C; mean ± SD, at least three replicates
T1 construct: made in house; host or cells: E. coli
T1 sequence (Q9NUW8 whole entry): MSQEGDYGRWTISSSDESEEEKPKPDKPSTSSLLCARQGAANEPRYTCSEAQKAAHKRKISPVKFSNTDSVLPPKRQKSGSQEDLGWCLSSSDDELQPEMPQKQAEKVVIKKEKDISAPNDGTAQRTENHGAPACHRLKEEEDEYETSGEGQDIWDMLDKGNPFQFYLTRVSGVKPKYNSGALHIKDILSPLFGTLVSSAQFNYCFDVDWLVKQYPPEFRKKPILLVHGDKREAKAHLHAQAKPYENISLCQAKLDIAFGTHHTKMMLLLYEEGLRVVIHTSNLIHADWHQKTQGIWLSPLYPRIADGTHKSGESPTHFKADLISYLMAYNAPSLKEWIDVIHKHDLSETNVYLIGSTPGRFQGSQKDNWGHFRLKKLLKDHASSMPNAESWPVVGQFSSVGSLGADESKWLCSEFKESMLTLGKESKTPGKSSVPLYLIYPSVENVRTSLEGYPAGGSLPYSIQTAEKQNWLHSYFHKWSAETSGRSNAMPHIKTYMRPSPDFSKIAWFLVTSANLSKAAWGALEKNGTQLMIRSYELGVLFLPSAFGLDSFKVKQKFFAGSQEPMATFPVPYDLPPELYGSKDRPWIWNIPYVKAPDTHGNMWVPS
Method: (§1) Recombinant human proteins tyrosyl-DNA phosphodiesterase 1 (TDP1) and tyrosyl-DNA phosphodiesterase 2 (TDP2) were expressed in the E. coli system, poly(ADP-ribose) polymerase 1 (PARP1) and poly(ADP-ribose) polymerase 2 (PARP2) were expressed in insect cells using a baculovirus expression system and purified as described in (Sukhanova et al., 2004; Sherstyuk et al., 2019; Dyrkheeva et al., 2020, 2021).
Determination of TDP1 activity. The reaction mixture (200 μl) for real-time fluorescent detection of TDP1 enzyme activity (Zakharenko et al., 2015) contained TDP1 reaction buffer (50 mM Tris-HCl, pH 8.0, 50 mM NaCl, and 7 mM β-mercaptoethanol), 50 nM oligonucleotide 5′-FAM-AAC GTC AGG GTC TTC C-BHQ1-3′, the test compound at various concentrations, and TDP1 at a final concentration of 1.5 nM. The reaction mixtures were incubated at a constant temperature of 26 °C in a POLARstar OPTIMA microplate fluorometer (BMG LABTECH, GmbH, Ortenberg, Germany). Fluorescence intensity (Ex485/Em520 nm) was measured every minute for 10 min. Mean values of half-maximal inhibitory concentration (IC50 – the concentration of the compound that inhibited 50 % of enzyme activity compared to the untreated control well containing only enzyme and substrate) were determined using a dose-response curve of the fluorescence signal level versus inhibitor concentration and calculated using MARS Data Analysis 2.0 (BMG LABTECH). Kinetic curves were obtained in at least three independent experiments and statistically processed in OriginPro 8.6.0 (OriginLab, Northampton, Massachusetts, USA).
The third group of compounds includes derivatives of the monomeric compound MB2Py(Ac), which is an isosteric analog of MB3, due to the fact that the pyrrolecarboxamide fragment contained in its structure can act as a hydrogen atom donor at the carboxamide nitrogen for hydrogen bond formation, in a position analogous to benzimidazole. Dimeric derivatives are represented by the DB2Py(n) series containing n-alkyldicarboxylic acids as a linker. This series is represented by a set of compounds containing 1, 3, 4, 5, 7, 9, and 11 methylene units, which allowed for a more accurate assessment of the dependence of the inhibitory activity of compounds on spacer length. The DB2Py(n) series differs from the DB3(n) series by the presence, in addition to the bisbenzimidazole structure, of a pyrrolecarboxamide structure, which is a fragment of the AT-specific antibiotic netropsin.Using the real-time fluorescence analysis method, halfmaximal inhibitory concentration (IC50) values of the studied compounds (see the Table) were obtained in the reaction of BHQ1 cleavage from the 3′-end of the oligonucleotide by TDP1, which led to an increase in FAM fluorescence at the 5′-end of the chain (Zakharenko et al., 2015). It should also be noted that a single-stranded oligonucleotide was used as substrate to exclude the binding of dimeric bisbenzimidazoles as minor-groove ligands to the DNA substrate and direct their action toward the enzymatic target.

[2] = system: poly(ADP-ribose) polymerase 2 (PARP2); experiment: PARP2 auto-poly(ADP-ribosyl)ation with [32P]-NAD+; assay type: biochemical, human; conditions: compound 500 μM, PARP2 600 nM, 0.6 mM [32P]-NAD+, 5 min, 37 °C; mean ± SD
From the text: as §1
(§2) Determination of PARP1 and PARP2 activity. For determination of PARP1 and PARP2 enzyme activity in the presence and absence of test compounds, radiolabeled [32P]-NAD⁺ was synthesized from α-[32P]-ATP according to the protocol (Sherstyuk et al., 2019). The auto-poly(ADPribosyl) ation reaction was performed in buffer for PARP1: 50 mM Tris-HCl, pH 8.0, 10 mM MgCl2, 150 mM NaCl, and 7 mM β-mercaptoethanol, as well as 2 A260 units/ml activated DNA, 0.3 mM [32P]-NAD⁺ at 37 °C. The reaction was initiated by addition of PARP1 to 200 nM and carried out for 2 min
(§3) The buffer for PARP2 contained: 50 mM Tris-HCl, pH 8.0, 3 mM spermine, 150 mM NaCl, and 7 mM β-mercaptoethanol, 2 A260 units/ml activated DNA, 0.6 mM [32P]-NAD⁺ at 37 °C. The reaction was initiated by addition of PARP2 to 600 nM, and the reaction mixtures were incubated for 5 min. The reaction was stopped by placing 5 μl aliquots on Whatman 1 paper filters impregnated with 5 % trichloroacetic acid (TCA). The filters were washed with 5 % TCA four times and air-dried after removal of TCA with 90 % ethanol. The incorporation of the radioactive label into the reaction product was calculated using a Typhoon FLA 9500 scanner (GE Healthcare, Chicago, Illinois, USA). At least three independent experiments were performed.

[3] = molecular target: T2, poly(ADP-ribose) polymerase 1 (PARP1) (Homo sapiens, UniProt P09874); experiment: PARP1 auto-poly(ADP-ribosyl)ation with [32P]-NAD+; assay type: biochemical; conditions: compound 500 μM, PARP1 200 nM, 0.3 mM [32P]-NAD+, 2 min, 37 °C; mean ± SD; read-out: PARP1 % of residual activity (500 μM)
T2 construct: made in house; host or cells: insect cells (baculovirus expression system)
T2 sequence (P09874 whole entry): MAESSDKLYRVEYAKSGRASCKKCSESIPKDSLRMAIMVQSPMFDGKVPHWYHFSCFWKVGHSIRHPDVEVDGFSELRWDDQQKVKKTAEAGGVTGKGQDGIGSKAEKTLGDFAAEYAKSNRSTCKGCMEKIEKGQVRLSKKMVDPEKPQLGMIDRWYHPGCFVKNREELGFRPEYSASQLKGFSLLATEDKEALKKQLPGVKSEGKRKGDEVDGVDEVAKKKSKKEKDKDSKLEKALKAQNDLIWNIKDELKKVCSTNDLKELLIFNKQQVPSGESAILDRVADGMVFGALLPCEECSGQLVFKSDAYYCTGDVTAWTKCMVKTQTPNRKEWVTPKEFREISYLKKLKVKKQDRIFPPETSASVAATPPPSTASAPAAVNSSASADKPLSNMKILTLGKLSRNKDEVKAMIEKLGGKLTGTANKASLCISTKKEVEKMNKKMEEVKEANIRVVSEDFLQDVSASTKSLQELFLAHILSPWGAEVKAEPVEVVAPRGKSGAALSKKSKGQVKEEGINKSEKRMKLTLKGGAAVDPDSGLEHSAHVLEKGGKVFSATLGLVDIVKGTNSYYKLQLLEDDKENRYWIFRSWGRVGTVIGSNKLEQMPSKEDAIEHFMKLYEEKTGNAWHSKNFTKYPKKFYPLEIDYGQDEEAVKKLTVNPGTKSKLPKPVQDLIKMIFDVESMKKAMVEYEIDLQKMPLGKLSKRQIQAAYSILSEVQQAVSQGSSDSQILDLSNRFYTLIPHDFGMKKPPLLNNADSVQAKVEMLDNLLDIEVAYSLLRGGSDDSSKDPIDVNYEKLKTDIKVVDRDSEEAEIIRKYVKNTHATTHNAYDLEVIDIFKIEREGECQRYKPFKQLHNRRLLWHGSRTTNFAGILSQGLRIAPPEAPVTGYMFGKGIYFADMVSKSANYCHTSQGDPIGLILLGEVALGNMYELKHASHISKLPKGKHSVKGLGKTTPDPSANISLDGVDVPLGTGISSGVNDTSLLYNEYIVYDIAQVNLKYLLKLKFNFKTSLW
From the text: as §1, §2, §3

[4] = molecular target: T3, tyrosyl-DNA phosphodiesterase 2 (TDP2) (Homo sapiens, UniProt O95551); experiment: TDP2 activity, removal of 5′-tyrosine from oligonucleotide substrate, denaturing PAGE; assay type: biochemical; conditions: inhibitor 500 μM, TDP2 200 nM, substrate 100 nM, 10 min, 37 °C; mean ± SD; read-out: TDP2 % of residual activity (500 μM)
T3 construct: made in house; host or cells: E. coli
T3 sequence (O95551 1-362): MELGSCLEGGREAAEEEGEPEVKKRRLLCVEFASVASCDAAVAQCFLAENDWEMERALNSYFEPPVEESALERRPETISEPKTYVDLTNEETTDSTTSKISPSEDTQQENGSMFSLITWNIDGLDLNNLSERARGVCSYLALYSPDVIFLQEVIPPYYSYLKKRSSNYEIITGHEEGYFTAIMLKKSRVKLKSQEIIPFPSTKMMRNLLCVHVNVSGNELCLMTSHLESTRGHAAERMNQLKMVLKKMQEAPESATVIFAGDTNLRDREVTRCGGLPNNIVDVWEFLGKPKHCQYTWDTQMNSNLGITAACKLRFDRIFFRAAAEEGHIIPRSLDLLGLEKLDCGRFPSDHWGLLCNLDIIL
From the text: as §1
Determination of TDP2 activity. For determination of TDP2 enzyme activity, an oligonucleotide 5′-tyrosine-AAC GTC AGG GTC TTC C-FAM-3′ containing a 6-FAM label at the 3′-end and an L-tyrosine residue attached via the phenolic OH group to the 5′-terminal phosphate was used as substrate, synthesized at the Russian-French-Japanese Laboratory of Bionanotechnology of Novosibirsk State University as described in (Dyrkheeva et al., 2021). The substrate at a concentration of 100 nM was incubated with TDP2 at a concentration of 200 nM in the absence or presence of inhibitor (500 μM) for 10 min at 37 °C in buffer containing 50 mM Tris-HCl, pH 8.0, 50 mM NaCl, 7 mM β-mercaptoethanol (Dyrkheeva et al., 2021). The reaction was stopped by addition of PAGE loading buffer (TBE, 10 % formamide, 7 M urea, 20 mM EDTA, 0.1 % xylene cyanol, and 0.1 % bromophenol blue). The samples were then heated at 90 °C for 5 min. The enzymatic reaction products were separated by electrophoresis in 20 % denaturing PAGE with 7 M urea at an acrylamide to bisacrylamide ratio of 19:1. A high-resolution Typhoon FLA 9500 laser scanner (GE Healthcare, Chicago, Illinois, USA) was used for gel scanning and visualization, and the data were analyzed using QuantityOne 4.6.7 software (Bio- Rad Laboratories, Inc., Hercules, California, USA). At least three independent experiments were performed, and statistical processing was carried out using OriginPro 8.6.0 (OriginLab, Northampton, Massachusetts, USA).
To study the effect of the studied compounds on TDP2 activity, we tested the ability of this enzyme to remove the tyrosine residue from the 5′-end of the oligonucleotide substrate in the absence and presence of inhibitors, as described in (Dyrkheeva et al., 2021).

| Structure (SMILES) | IC50 [1] | PARP2 % of residual activity (500 μM) [2] | remaining activity at 500 µM [3] | remaining activity at 500 µM [4] |
| --- | --- | --- | --- | --- |
| CN1CCN(c2ccc3nc(-c4ccc5nc(CNC(=O)CN6CCN(CC(=O)NCc7nc8ccc(-c9nc%10ccc(N%11CCN(C)CC%11)cc%10[nH]9)cc8[nH]7)CC6)[nH]c5c4)[nH]c3c2)CC1 [DB2P(1)] | 6000 ± 4000 nM | ~ 100% | 57 ± 16% | 66 ± 7% |
| CN1CCN(c2ccc3nc(-c4ccc5nc(CNC(=O)CCN6CCN(CCC(=O)NCc7nc8ccc(-c9nc%10ccc(N%11CCN(C)CC%11)cc%10[nH]9)cc8[nH]7)CC6)[nH]c5c4)[nH]c3c2)CC1 [DB2P(2)] | 9000 ± 3000 nM | 80 ± 20% | 51 ± 15% | 44 ± 11% |
| CN1CCN(c2ccc3nc(-c4ccc5nc(CNC(=O)CCCN6CCN(CCCC(=O)NCc7nc8ccc(-c9nc%10ccc(N%11CCN(C)CC%11)cc%10[nH]9)cc8[nH]7)CC6)[nH]c5c4)[nH]c3c2)CC1 [DB2P(3)] | 4100 ± 600 nM | 64 ± 16% | 37 ± 10% | 36 ± 7% |
| CN1CCN(c2ccc3nc(-c4ccc5nc(CNC(=O)CCCCN6CCN(CCCCC(=O)NCc7nc8ccc(-c9nc%10ccc(N%11CCN(C)CC%11)cc%10[nH]9)cc8[nH]7)CC6)[nH]c5c4)[nH]c3c2)CC1 [DB2P(4)] | 2300 ± 300 nM | 85 ± 13% | 33 ± 13% | 44 ± 11% |
| CCCn1cc(NC(=O)CC(=O)Nc2cc(-c3nc4ccc(-c5nc6ccc(N7CCN(C)CC7)cc6[nH]5)cc4[nH]3)n(CCC)c2)cc1-c1nc2ccc(-c3nc4ccc(N5CCN(C)CC5)cc4[nH]3)cc2[nH]1 [DB2Py(1)] | 250 ± 50 nM | ~ 100% | ~100% | 55 ± 3% |
| CCCn1cc(NC(=O)CCCC(=O)Nc2cc(-c3nc4ccc(-c5nc6ccc(N7CCN(C)CC7)cc6[nH]5)cc4[nH]3)n(CCC)c2)cc1-c1nc2ccc(-c3nc4ccc(N5CCN(C)CC5)cc4[nH]3)cc2[nH]1 [DB2Py(3)] | 410 ± 90 nM | ~ 100% | ~100% | 70 ± 11% |
| CCCn1cc(NC(=O)CCCCC(=O)Nc2cc(-c3nc4ccc(-c5nc6ccc(N7CCN(C)CC7)cc6[nH]5)cc4[nH]3)n(CCC)c2)cc1-c1nc2ccc(-c3nc4ccc(N5CCN(C)CC5)cc4[nH]3)cc2[nH]1 [DB2Py(4)] | 400 ± 150 nM | ~ 100% | ~100% | ~100% |
| CCCn1cc(NC(=O)CCCCCC(=O)Nc2cc(-c3nc4ccc(-c5nc6ccc(N7CCN(C)CC7)cc6[nH]5)cc4[nH]3)n(CCC)c2)cc1-c1nc2ccc(-c3nc4ccc(N5CCN(C)CC5)cc4[nH]3)cc2[nH]1 [DB2Py(5)] | 350 ± 130 nM | ~ 100% | ~100% | ~100% |
| CCCn1cc(NC(=O)CCCCCCCC(=O)Nc2cc(-c3nc4ccc(-c5nc6ccc(N7CCN(C)CC7)cc6[nH]5)cc4[nH]3)n(CCC)c2)cc1-c1nc2ccc(-c3nc4ccc(N5CCN(C)CC5)cc4[nH]3)cc2[nH]1 [DB2Py(7)] | 280 ± 10 nM | ~ 100% | ~100% | ~100% |
| CCCn1cc(NC(=O)CCCCCCCCCC(=O)Nc2cc(-c3nc4ccc(-c5nc6ccc(N7CCN(C)CC7)cc6[nH]5)cc4[nH]3)n(CCC)c2)cc1-c1nc2ccc(-c3nc4ccc(N5CCN(C)CC5)cc4[nH]3)cc2[nH]1 [DB2Py(9)] | 300 ± 80 nM | ~ 100% | ~100% | ~100% |
| CCCn1cc(NC(=O)CCCCCCCCCCCC(=O)Nc2cc(-c3nc4ccc(-c5nc6ccc(N7CCN(C)CC7)cc6[nH]5)cc4[nH]3)n(CCC)c2)cc1-c1nc2ccc(-c3nc4ccc(N5CCN(C)CC5)cc4[nH]3)cc2[nH]1 [DB2Py(11)] | 900 ± 100 nM | ~ 100% | ~100% | ~100% |
